In this assay the target is T1, human capsaicin receptor (Homo sapiens, UniProt Q8NER1).
T1 construct: pBK-CMV expression construct encoding the full length human capsaicin receptor; expressed in transfected cells
Put plainly: Calcium mobilization assay, determination of antagonist activity (Example 6). It counts as cell-based. To be noted: Table II; IC50 determined as described in Example 6 (antagonist activity, calcium mobilization). Summed up:
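Antagonism measured as inhibition of capsaicin-evoked (final concentration = EC50, from an 8-point 1 nM–3 μM curve) Fluo-3 calcium signal in stable hVR1-HEK293 cells. Test compounds at 1–5 μM final, 0.5–6 h dark preincubation at room temperature. IC50 = concentration giving 50% reduction versus agonist-only response.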

Drawing on patent US7566712B2, “Biaryl piperazinyl-pyridine analogues” (Neurogen Corporation, priority 2003, dated 2009), this text covers IC50 for 29 compounds.

The structures appear in SMILES notation.

T1 sequence (Q8NER1 whole entry): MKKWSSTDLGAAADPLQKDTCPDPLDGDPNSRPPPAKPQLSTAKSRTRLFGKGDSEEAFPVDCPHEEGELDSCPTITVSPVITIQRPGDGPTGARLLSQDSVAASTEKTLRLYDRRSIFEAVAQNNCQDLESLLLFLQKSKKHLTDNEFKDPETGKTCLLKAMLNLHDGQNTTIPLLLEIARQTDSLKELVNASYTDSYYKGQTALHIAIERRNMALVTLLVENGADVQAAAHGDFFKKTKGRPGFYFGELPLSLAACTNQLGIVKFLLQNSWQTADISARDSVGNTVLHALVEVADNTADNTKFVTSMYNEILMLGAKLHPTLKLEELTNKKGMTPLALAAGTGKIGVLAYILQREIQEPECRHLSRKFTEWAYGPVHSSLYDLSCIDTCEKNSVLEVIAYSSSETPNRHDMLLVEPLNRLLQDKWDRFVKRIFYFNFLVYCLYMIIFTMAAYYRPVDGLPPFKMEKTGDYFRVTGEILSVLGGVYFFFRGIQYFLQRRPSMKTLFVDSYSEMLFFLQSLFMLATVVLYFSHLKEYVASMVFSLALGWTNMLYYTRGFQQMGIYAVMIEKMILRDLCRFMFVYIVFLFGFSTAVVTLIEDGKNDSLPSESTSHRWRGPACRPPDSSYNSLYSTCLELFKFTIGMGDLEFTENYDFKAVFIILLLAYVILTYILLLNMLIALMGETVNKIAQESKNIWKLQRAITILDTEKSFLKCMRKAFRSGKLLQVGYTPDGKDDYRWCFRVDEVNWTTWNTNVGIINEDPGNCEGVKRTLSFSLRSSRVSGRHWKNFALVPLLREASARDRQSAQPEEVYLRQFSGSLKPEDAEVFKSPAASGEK

For `Cc1ccc(-c2cc(N3CCN(c4nccnc4Cl)C[C@H]3C)nc(N3CCCC3)n2)cc1F` [Example 978, 4-[(2R)-4-(3-chloropyrazin-2-yl)-2-methylpiperazin-1-yl]-6-(3-fluoro-4-methylphenyl)-2-pyrrolidin-1-ylpyrimidine], the IC50 was no more than 1 µM.

In the case of `Cc1ccc(-c2cc(N3CCN(c4ncccc4Cl)C[C@H]3C)nc(N3CCC[C@H]3C)n2)cc1F` [Example 979, 4-[(2R)-4-(3-chloropyridin-2-yl)-2-methylpiperazin-1-yl]-6-(3-fluoro-4-methylphenyl)-2-[(2R)-2-methylpyrrolidin-1-yl]pyrimidine], the half-maximal inhibitory concentration (IC50) is no more than 1 µM.

Turning to `Cc1ccc(-c2cc(N3CCN(c4ncccc4Cl)C[C@H]3C)nc(N3CCOCC3)n2)cc1F` [Example 980, 4-[4-[(2R)-4-(3-chloropyridin-2-yl)-2-methylpiperazin-1-yl]-6-(3-fluoro-4-methylphenyl)pyrimidin-2-yl]morpholine], the IC50 was no more than 1 µM.

Take `Cc1ccc(-c2cc(N3CCN(c4nccnc4Cl)C[C@H]3C)nc(N3CCC[C@H]3C)n2)cc1F` [Example 981, 4-[(2R)-4-(3-chloropyrazin-2-yl)-2-methylpiperazin-1-yl]-6-(3-fluoro-4-methylphenyl)-2-[(2R)-2-methylpyrrolidin-1-yl]pyrimidine]: the half-inhibitory concentration (IC50) was no more than 1 µM.

Consider `C[C@@H]1CN(c2ncccc2F)CCN1c1cc(-c2ccc(F)c(Cl)c2)nc(Cl)n1` [Example 983, 2-chloro-4-(3-chloro-4-fluorophenyl)-6-[(2R)-4-(3-fluoropyridin-2-yl)-2-methylpiperazin-1-yl]pyrimidine], for which the IC50 was no more than 1 µM.

Turning to `C[C@@H]1CN(c2ncccc2Cl)CCN1c1cc(-c2ccc(F)c(Cl)c2)nc(N2CCC[C@@H]2C)n1` [Example 984, 4-(3-chloro-4-fluorophenyl)-6-[(2R)-4-(3-chloropyridin-2-yl)-2-methylpiperazin-1-yl]-2-[(2S)-2-methylpyrroiidin-1-yl]pyrimidine], the concentration for half-maximal inhibition (IC50) is no more than 1 µM.

Take `C[C@H]1CN(c2ncccc2Cl)CCN1c1cc(-c2ccc(F)c(Cl)c2)nc(N2CCC[C@@H]2C)n1` [Example 985, 4-(3-chloro-4-fluorophenyl)-6-[(2S)-4-(3-chloropyridin-2-yl)-2-methylpiperazin-1-yl]-2-[(2S)-2-methylpyrrolidin-1-yl]pyrimidine]: the IC50 is no more than 1 µM.

`C[C@@H]1CN(c2nccnc2Cl)CCN1c1cc(-c2ccc(F)c(Cl)c2)nc(N2CCC[C@@H]2C)n1` [Example 986, 4-(3-chloro-4-fluorophenyl)-6-[(2R)-4-(3-chloropyrazin-2-yl)-2-methylpiperazin-1-yl]-2-[(2S)-2-methylpyrrolidin-1-yl]pyrimidine]: the IC50 is no more than 1 µM.

In the case of `C[C@H]1CN(c2nccnc2Cl)CCN1c1cc(-c2ccc(F)c(Cl)c2)nc(N2CCC[C@@H]2C)n1` [Example 987, 4-(3-chloro-4-fluorophenyl)-6-[(2S)-4-(3-chloropyrazin-2-yl)-2-methylpiperazin-1-yl]-2-[(2S)-2-methylpyrrolidin-1-yl]pyrimidine], the IC50 is no more than 1 µM.

`C[C@@H]1CN(c2ccccc2F)CCN1c1cc(-c2ccc(F)c(Cl)c2)nc(N2CCC[C@@H]2C)n1` [Example 989, 4-(3-chloro-4-fluorophenyl)-6-[(2R)-4-(2-fluorophenyl)-2-methylpiperazin-1-yl]-2-[(2S)-2-methylpyrrolidin-1-yl]pyrimidlne]: the IC50 was no more than 1 µM.

As to `C[C@@H]1CN(c2ccccc2F)CCN1c1cc(-c2ccc(F)c(Cl)c2)nc(N2CCCC2)n1` [Example 990, 4-(3-chloro-4-fluorophenyl)-6-[(2R)-4-(2-fluorophenyl)-2-methylpiperazin-1-yl]-2-pyrrolidin-1-ylpyrimidine], the IC50 is no more than 1 µM.

On to `C[C@@H]1CN(c2ccccc2F)CCN1c1cc(-c2ccc(F)c(Cl)c2)nc(N2CCOCC2)n1` [Example 991, 4-{4-(3-chloro-4-fluorophenyl)-6-[(2R)-4-(2-fluorophenyl)-2-methylpiperazin-1-yl]pyrimidin-2-yl}morpholine], for which the IC50 was no more than 1 µM.

As for `Cc1ccc(-c2cc(N3CCN(c4nccnc4Cl)C[C@H]3C)nc(N3CCC[C@@H]3C)n2)cc1F` [Example 992, 4-[(2R)-4-(3-chloropyrazin-2-yl)-2-methylpiperazin-1-yl]-6-(3-fluoro-4-methylphenyl)-2-[(2S)-2-methylpyrrolidin-1-yl]pyrimidine], the concentration for half-maximal inhibition (IC50) was no more than 1 µM.

For the compound `Cc1ccc(-c2cc(N3CCN(c4nccnc4Cl)C[C@H]3C)nc(N3CCOCC3)n2)cc1F` [Example 993, 4-[4-[(2R)-4-(3-chloropyrazin-2-yl)-2-methylpiperazin-1-yl]-6-(3-fluoro-4-methylphenyl)pyrimidin-2-yl]morpholine], the IC50 was no more than 1 µM.

As for `Cc1ccc(-c2cc(N3CCN(c4ncccc4Cl)C[C@H]3C)nc(N3CCC[C@@H]3C)n2)cc1F` [Example 994, 4-[(2R)-4-(3-chloropyridin-2-yl)-2-methylpiperazin-1-yl]-6-(3-fluoro-4-methylphenyl)-2-[(2S)-2-methylpyrrolidin-1-yl]pyrimidine], the IC50 was no more than 1 µM.

Regarding `C[C@@H]1CN(c2ncccc2C(F)(F)F)CCN1c1cc(-c2ccc(F)c(F)c2)nc(N2CCC[C@@H]2C)n1` [Example 995, 4-(3,4-difluorophenyl)-2-[(2S)-2-methylpyrrolidin-1-yl]-6-{(2R)-2-methyl-4-[3-(trifluoromethyl)pyridin-2-yl]piperazin-1-yl}pyrimidine], the IC50 is no more than 1 µM.

With `CC1CCCN1c1nc(-c2ccc(F)c(Cl)c2)cc(N2CCN(c3ncccn3)CC2)n1` (centres unmarked) [Example 996, 4-(3-chloro-4-fluorophenyl)-2-(2-methylpyrrolidin-1-yl)-6-(4-pyrimidin-2-ylpiperazin-1-yl)pyrimidine], the IC50 was no more than 1 µM.

On to `Cc1ccc(-c2cc(N3CCN(c4ncccc4Cl)C[C@H]3C)nc(N3CCCC3)n2)cc1Cl` [Example 997, 4-(3-chloro-4-methylphenyl)-6-[(2R)-4-(3-chloropyridin-2-yl)-2-methylpiperazin-1-yl]-2-pyrrolidin-1-ylpyrimidine], for which the 50% inhibitory concentration (IC50) was no more than 1 µM.

Turning to `Cc1ccc(-c2cc(N3CCN(c4ncccc4Cl)C[C@H]3C)nc(N3CCOCC3)n2)cc1Cl` [Example 998, 4-{4-(3-chloro-4-methylphenyl)-6-[(2R)-4-(3-chloropyridin-2-yl)-2-methylpiperazin-1-yl]pyrimidin-2-yl}morpholine], the IC50 was no more than 1 µM.

On to `Cc1ccc(-c2cc(N3CCN(c4ncccc4Cl)C[C@H]3C)nc(N3CCC[C@@H]3C)n2)cc1Cl` [Example 999, 4-(3-ohloro-4-methylphenyl)-6-[(2R)-4-(3-chloropyridin-2-yl)-2-methylpiperazin-1-yl]-2-[(2S)-2-methylpyrrolidin-1-yl]pyrimidine], for which the concentration for half-maximal inhibition (IC50) is no more than 1 µM.

Turning to `C[C@@H]1CN(c2ncccc2Cl)CCN1c1cc(-c2ccc(F)c(Cl)c2)nc(N2CCOC[C@@H]2C)n1` [Example 1000, (3S)-4-{4-(3-ohloro-4-fluorophenyl)-6-[(2R)-4-(3-chloropyridin-2-yl)-2-methylpiperazin-1-yl]pyrimidin-2-yl}-3-methylmorpholine], the IC50 was no more than 1 µM.

As for `Cc1ccnnc1N1CCN(c2cc(-c3ccc(F)c(Cl)c3)nc(N3CCCC3C)n2)CC1` (centres unmarked) [Example 1001, 3-{4-[6-(3-ohloro-4-fluorophenyl)-2-(2-methylpyrrolidin-1-yl)pyrimidin-4-yl]piperazin-1-yl}-4-methylpyridazine], the IC50 is no more than 1 µM.

Consider `CC1CCCN1c1nc(-c2ccc(F)c(Cl)c2)cc(N2CCN(c3ncc(Br)cn3)CC2)n1` (centres unmarked) [Example 1002, 4-[4-(5-bromopyrimidin-2-yl)piperazin-1-yl]-6-(3-chloro-4-fluorophenyl)-2-(2-methylpyrrolidin-1-yl)pyrimidine], for which the 50% inhibitory concentration (IC50) is no more than 1 µM.

`C[C@@H]1CN(c2nccnc2Cl)CCN1c1cc(-c2ccc(F)c(Cl)c2)nc(N2CCOC[C@@H]2C)n1` [Example 1003, (3S)-4-{4-(3-chloro-4-fluorophenyl)-6-[(2R)-4-(3-chloropyrazin-2-yl)-2-methylpiperazin-1-yl]pyrimidin-2-yl}-3-methylmorpholine]: the IC50 is no more than 1 µM.

`C[C@@H]1CN(c2ncccc2F)CCN1c1cc(-c2ccc(F)c(Cl)c2)nc(N2CCOC[C@@H]2C)n1` [Example 1004, (3S)-4-{4-(3-chloro-4-fluorophenyl)-6-[(2R)-4-(3-fluoropyridin-2-yl)-2-methylpiperaztn-1-yl]pyrimidin-2-yl}-3-methylmorpholine]: the IC50 was no more than 1 µM.

Consider `C[C@H]1CN(c2ncccc2Cl)CCN1c1cc(-c2ccc(F)c(Cl)c2)nc(N2CCOC[C@@H]2C)n1` [Example 1005, (3S)-4-{4-(3-chloro-4-fluorophenyl)-6-[(2S)-4-(3-chloropyridin-2-yl)-2-methylpiperazin-1-yl]pyrimidin-2-yl}-3-methylmorpholine], for which the IC50 is no more than 1 µM.

In the case of `C[C@@H]1CN(c2ncccc2F)CCN1c1cc(-c2ccc(F)c(F)c2)nc(N2CCOC[C@@H]2C)n1` [Example 1006, (3S)-4-{4-(3,4-difluorophenyl)-6-[(2R)-4-(3-fluoropyridin-2-yl)-2-methylpiperazin-1-yl]pyrimidin-2-yl}-3-methylmorpholine], the IC50 is no more than 1 µM.

With `CC1CCCN1c1nc(-c2ccc(F)c(Cl)c2)cc(N2CCN(c3ncc(C#N)cn3)CC2)n1` (centres unmarked) [Example 1009, 2-{4-[6-(3-chloro-4-fluorophenyl)-2-(2-methylpyrrolidin-1-yl)pyrimidin-4-yl]piperazin-1-yl}pyrimidine-5-carbonitrile], the IC50 was no more than 1 µM.

With `CC1CCCN1c1nc(-c2ccc(F)c(Cl)c2)cc(N2CCN(c3ncncc3Cl)CC2)n1` (centres unmarked) [Example 1010, 4-(3-chloro-4-fluorophenyl)-6-[4-(5-chloropyrimidin-4-yl)piperazin-1-yl]-2-(2-methylpyrrolidin-1-yl)pyrimidine], the IC50 was no more than 1 µM.
